In the supplement of paper PMC6045584:
± gives the standard deviation of the averaged measurements.

Key:
CAMPTOTHECIN = compound: CC[C@@]1(O)C(=O)OCc2c1cc1n(c2=O)Cc2cc3ccccc3nc2-1 [CAMPTOTHECIN]; experiment: surviving fraction relative to DMSO-only wells; higher = less growth inhibition; conditions: exposure time: 5 days
Method in brief: (§1)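 In 384-well plates, 250–500 log-phase tumour cells per well were given 24 hours before five days of continuous exposure to inhibitors at 0.5, 1, 5, 10, 50, 100, 500 and 1000 nM. Surviving fraction is luminescence from CellTiter-Glo, normalised to the median of wells containing DMSO alone. Reading took place after 10 minutes at room temperature.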

CELECOXIB = compound: Cc1ccc(-c2cc(C(F)(F)F)nn2-c2ccc(S(N)(=O)=O)cc2)cc1 [CELECOXIB]; experiment: as above; conditions: exposure time: 5 days
Method in brief: as §1

| Test System | surviving fraction (CAMPTOTHECIN; 0.5 nM) | surviving fraction (CAMPTOTHECIN; 1 nM) | surviving fraction (CAMPTOTHECIN; 5 nM) | surviving fraction (CAMPTOTHECIN; 10 nM) | surviving fraction (CAMPTOTHECIN; 50 nM) | surviving fraction (CAMPTOTHECIN; 100 nM) | surviving fraction (CAMPTOTHECIN; 500 nM) | surviving fraction (CAMPTOTHECIN; 1000 nM) | surviving fraction (CELECOXIB; 0.5 nM) | surviving fraction (CELECOXIB; 1 nM) | surviving fraction (CELECOXIB; 5 nM) | surviving fraction (CELECOXIB; 10 nM) | surviving fraction (CELECOXIB; 50 nM) | surviving fraction (CELECOXIB; 100 nM) | surviving fraction (CELECOXIB; 500 nM) | surviving fraction (CELECOXIB; 1000 nM) |
| --- | --- | --- | --- | --- | --- | --- | --- | --- | --- | --- | --- | --- | --- | --- | --- | --- |
| SNU475 LIVER | 0.34 ± 0.0091 | 0.828 ± 0.034 | 0.635 ± 0.0066 | 0.482 ± 0.023 | 0.162 ± 0.0079 | 0.194 ± 0.012 | 0.103 ± 0.0081 | 0.104 ± 0.0085 | 1.06 ± 0.039 | 1.08 ± 0.054 | 1.02 ± 0.03 | 1.05 ± 0.033 | 1.07 ± 0.026 | 1.02 ± 0.046 | 1.06 ± 0.03 | 1.11 ± 0.026 |
| HCC78 LUNG | 0.33 ± 0.059 | 0.597 ± 0.15 | 0.0267 ± 0.0057 | 0.0123 ± 0.0031 | 0.0137 ± 0.0031 | 0.0147 ± 0.0023 | 0.013 ± 0.0027 | 0.016 ± 0.0027 | 0.815 ± 0.2 | 0.894 ± 0.038 | 0.89 ± 0.28 | 1.05 ± 0.18 | 0.886 ± 0.14 | 1.05 ± 0.082 | 0.973 ± 0.09 | 0.801 ± 0.028 |
| SJSA1 BONE | 1.18 ± 0.043 | 1.2 ± 0.06 | 1.01 ± 0.15 | 1.2 ± 0.017 | 1.25 ± 0.084 | 1.11 ± 0.093 | 1.14 ± 0.24 | 1.18 ± 0.083 | 1.15 ± 0.061 | 1.68 ± 0.074 | 1.6 ± 0.048 | 1.54 ± 0.045 | 1.71 ± 0.07 | 1.81 ± 0.054 | 1.65 ± 0.039 | 1.85 ± 0.11 |
| JIMT1 BREAST | 0.894 ± 0.018 | 0.893 ± 0.058 | 0.8377 ± 0.0059 | 0.655 ± 0.048 | 0.433 ± 0.024 | 0.394 ± 0.034 | 0.066 ± 0.0031 | 0.0517 ± 0.0014 | 1.04 ± 0.039 | 1.04 ± 0.023 | 1.06 ± 0.039 | 1.08 ± 0.051 | 1.04 ± 0.021 | 1.08 ± 0.015 | 1.08 ± 0.062 | 1.07 ± 0.024 |
| OSHN BONE | 0.83 ± 0.013 | 0.842 ± 0.007 | 0.47 ± 0.079 | 0.108 ± 0.018 | 0.0807 ± 0.0076 | 0.0593 ± 0.012 | 0.0367 ± 0.0083 | 0.034 ± 0.0044 | 1.099 ± 0.0076 | 1.091 ± 0.0078 | 1.13 ± 0.018 | 1.1 ± 0.019 | 1.132 ± 0.0091 | 1.15 ± 0.029 | 1.15 ± 0.023 | 1.11 ± 0.015 |
| SG32 HEADNECK | 0.308 ± 0.056 | 0.492 ± 0.0071 | 0.336 ± 0.0083 | 0.447 ± 0.071 | 0.25 ± 0.036 | 0.263 ± 0.037 | 0.0417 ± 0.0055 | 0.026 ± 0.002 | 1.37 ± 0.15 | 1.15 ± 0.063 | 1.29 ± 0.13 | 1.18 ± 0.26 | 1.22 ± 0.063 | 1.1 ± 0.12 | 1.64 ± 0.21 | 1.19 ± 0.062 |
| HELA CERVIX | 0.934 ± 0.062 | 0.937 ± 0.044 | 0.967 ± 0.04 | 1.06 ± 0.014 | 0.253 ± 0.019 | 0.373 ± 0.02 | 0.0667 ± 0.0072 | 0.0348 ± 0.0013 | 1.09 ± 0.049 | 1.11 ± 0.047 | 1.05 ± 0.058 | 1.05 ± 0.039 | 1.09 ± 0.018 | 1.16 ± 0.044 | 1.14 ± 0.033 | 1.13 ± 0.049 |
| CADOES1 SOFT TISSUE | 0.886 ± 0.088 | 0.818 ± 0.1 | 0.0943 ± 0.0059 | 0.0577 ± 0.014 | 0.045 ± 0.0044 | 0.0337 ± 0.0064 | 0.0317 ± 0.0021 | 0.0297 ± 0.0015 | 0.792 ± 0.11 | 0.925 ± 0.091 | 0.807 ± 0.17 | 0.984 ± 0.052 | 0.973 ± 0.043 | 0.942 ± 0.024 | 0.888 ± 0.045 | 0.827 ± 0.097 |
| NOS1 BONE | 0.833 ± 0.15 | 0.867 ± 0.02 | 0.663 ± 0.067 | 0.494 ± 0.059 | 0.636 ± 0.037 | 0.552 ± 0.036 | 0.392 ± 0.039 | 0.337 ± 0.026 | 1.18 ± 0.12 | 1.15 ± 0.34 | 1.16 ± 0.071 | 1.25 ± 0.051 | 1.18 ± 0.019 | 1.21 ± 0.054 | 1.12 ± 0.11 | 1.16 ± 0.075 |
| SIHA CERVIX | 0.822 ± 0.017 | 0.889 ± 0.024 | 0.857 ± 0.033 | 0.539 ± 0.1 | 0.44 ± 0.039 | 0.377 ± 0.0053 | 0.099 ± 0.0017 | 0.0593 ± 0.0023 | 1.08 ± 0.065 | 1 ± 0.064 | 1.08 ± 0.033 | – | 1.06 ± 0.072 | 1.11 ± 0.026 | 1.07 ± 0.067 | 1.05 ± 0.064 |
| MG63 BONE | 0.873 ± 0.015 | 0.871 ± 0.028 | 0.434 ± 0.019 | 0.295 ± 0.0068 | 0.0393 ± 0.0065 | 0.024 ± 0.001 | 0.02 ± 0.001 | 0.023 ± 0.001 | 1.04 ± 0.045 | 1.04 ± 0.046 | 1.09 ± 0.038 | 1.08 ± 0.033 | 1.09 ± 0.039 | 1.12 ± 0.042 | 1.1 ± 0.032 | 1.06 ± 0.044 |
| RDES SOFT TISSUE | 0.776 ± 0.076 | 0.735 ± 0.1 | 0.027 ± 0.001 | 0.0233 ± 0.00058 | 0.0347 ± 0.0011 | 0.0297 ± 0.0015 | 0.0263 ± 0.0011 | 0.0357 ± 0.0011 | 1.11 ± 0.11 | 1.16 ± 0.14 | 1.19 ± 0.069 | 1.11 ± 0.077 | 1.16 ± 0.25 | 1.27 ± 0.11 | 1.17 ± 0.14 | 1.15 ± 0.045 |
| HCC38 BREAST | 0.946 ± 0.16 | 0.926 ± 0.15 | 0.563 ± 0.16 | 0.351 ± 0.12 | 0.0953 ± 0.0049 | 0.0423 ± 0.009 | 0.038 ± 0.0072 | 0.0387 ± 0.0025 | 1.17 ± 0.23 | 1.4 ± 0.23 | 1.33 ± 0.23 | 1.36 ± 0.25 | 1.25 ± 0.1 | 1.17 ± 0.0085 | 1.09 ± 0.095 | 1.15 ± 0.12 |
| MFM223 BREAST | 0.746 ± 0.07 | 0.703 ± 0.03 | 0.566 ± 0.047 | 0.573 ± 0.11 | 0.754 ± 0.087 | 0.662 ± 0.041 | 0.296 ± 0.072 | 0.303 ± 0.1 | 1.41 ± 0.52 | 1.3 ± 0.2 | 1.29 ± 0.26 | 1.33 ± 0.34 | 1.1 ± 0.034 | 1.09 ± 0.1 | 1.05 ± 0.11 | 1.03 ± 0.017 |
| CHLA90 AUTONOMIC GANGLIA | 0.318 ± 0.011 | 0.835 ± 0.041 | 0.584 ± 0.031 | 0.481 ± 0.05 | 0.173 ± 0.0053 | 0.268 ± 0.0099 | 0.133 ± 0.033 | 0.137 ± 0.027 | 1.01 ± 0.048 | 0.999 ± 0.058 | 0.99 ± 0.054 | 1.03 ± 0.12 | 1.03 ± 0.088 | 1 ± 0.15 | 0.999 ± 0.058 | 1.08 ± 0.026 |
| HCC1806 BREAST | 0.717 ± 0.092 | 0.661 ± 0.046 | 0.269 ± 0.054 | 0.128 ± 0.015 | 0.074 ± 0.0056 | 0.044 ± 0.0017 | 0.0193 ± 0.00058 | 0.0223 ± 0.00058 | 1.08 ± 0.049 | 1.01 ± 0.16 | 1.11 ± 0.084 | 1.1 ± 0.18 | 1.11 ± 0.039 | 1.25 ± 0.09 | 1.09 ± 0.059 | 1.08 ± 0.077 |
